# According to patent US20240034737A1, “Heterocyclic Derivatives as P2X7 Receptor Antagonists” (BREYE THERAPEUTICS APS, priority 2020, published 2024):
# Legend:
# mP2X7 = mP2X7 (Mus musculus (Mouse), UniProt Q9Z1M0); assay: mP2X7 channel calcium-influx assay (Fluo-8 NW, FLIPR TETRA, Bz-ATP stimulation); format: cell-based
# Procedure: (§1) Extracellular binding of Bz-ATP to P2X7 receptor opens the channel and allows Ca^2+ influx into the cells. This Ca^2+ entry was measured in HEK-293 cells stably transfected with P2X7 receptor using Screen Quest™ Fluo-8 No Wash Calcium Assay Kit (AAt Bioquest®, cat. 36316). Once inside the cell, the lipophilic blocking groups of Fluo-8 are cleaved by non-specific cell esterases, resulting in a negatively-charged fluorescent dye that stays inside cells. Its fluorescence increases upon binding to calcium. When HEK-293/P2X7 cells are stimulated with Bz-ATP, Ca^2+ enters the cells and the fluorescence of Fluo-8 NW increases.
# (§2) HEK-293 cells stably transfected with P2X7 receptor were seeded overnight in growth medium at 10,000 to 20,000 cells/well in 384-well plate. 24 hours later, the medium was removed, and the cells were pre-loaded at RT for 1 hour with 20 μL/w of Fluo-8 NW. Then 10 μL/w of test compounds and reference antagonist A438079 at 3X-concentration were injected with the […] and the kinetic response over a period of five minutes was monitored.
# P2X7 receptor = P2X7 receptor (Homo sapiens (Human), UniProt Q99572); assay: Human P2X7 channel calcium-influx assay (Fluo-8 NW, FLIPR TETRA, Bz-ATP stimulation); format: cell-based; conditions: HEK-293 cells stably transfected with P2X7 receptor, Low Divalent Cation Assay Buffer, read-out: hP2X7 IC50
# P2X7 receptor, sequence (Q99572 whole entry): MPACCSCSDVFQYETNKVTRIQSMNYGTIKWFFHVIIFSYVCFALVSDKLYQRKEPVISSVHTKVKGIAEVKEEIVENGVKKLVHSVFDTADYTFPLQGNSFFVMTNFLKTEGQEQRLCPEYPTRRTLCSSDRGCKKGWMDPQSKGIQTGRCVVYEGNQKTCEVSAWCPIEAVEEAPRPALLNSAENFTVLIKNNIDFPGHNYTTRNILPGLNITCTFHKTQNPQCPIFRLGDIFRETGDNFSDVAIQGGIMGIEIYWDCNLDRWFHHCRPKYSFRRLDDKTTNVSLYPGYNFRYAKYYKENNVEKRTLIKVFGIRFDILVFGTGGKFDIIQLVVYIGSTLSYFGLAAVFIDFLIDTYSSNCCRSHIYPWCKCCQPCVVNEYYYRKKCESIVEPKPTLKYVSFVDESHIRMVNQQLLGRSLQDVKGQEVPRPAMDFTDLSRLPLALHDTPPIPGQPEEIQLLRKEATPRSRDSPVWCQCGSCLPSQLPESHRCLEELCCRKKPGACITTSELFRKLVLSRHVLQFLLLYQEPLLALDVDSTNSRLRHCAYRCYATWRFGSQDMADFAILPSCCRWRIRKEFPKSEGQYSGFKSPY
# Procedure: as §1, §2
# mP2X7, sequence (Q9Z1M0 whole entry): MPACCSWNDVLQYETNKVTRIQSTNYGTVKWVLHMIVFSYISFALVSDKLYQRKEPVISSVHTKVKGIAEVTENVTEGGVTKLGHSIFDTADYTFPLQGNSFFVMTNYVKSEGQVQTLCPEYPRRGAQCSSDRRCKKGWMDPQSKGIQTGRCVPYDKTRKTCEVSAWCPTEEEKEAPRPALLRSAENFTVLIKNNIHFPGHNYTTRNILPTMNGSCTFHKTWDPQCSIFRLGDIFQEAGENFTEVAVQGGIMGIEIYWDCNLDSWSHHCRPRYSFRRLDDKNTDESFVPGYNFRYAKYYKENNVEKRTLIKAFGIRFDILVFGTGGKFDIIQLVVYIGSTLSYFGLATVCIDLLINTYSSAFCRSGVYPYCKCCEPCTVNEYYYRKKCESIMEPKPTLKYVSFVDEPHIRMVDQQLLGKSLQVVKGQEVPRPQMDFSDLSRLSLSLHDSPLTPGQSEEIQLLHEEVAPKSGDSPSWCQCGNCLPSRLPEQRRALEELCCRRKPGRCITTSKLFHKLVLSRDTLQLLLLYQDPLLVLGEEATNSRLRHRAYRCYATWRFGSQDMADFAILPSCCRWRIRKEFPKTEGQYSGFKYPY
smiles,measurement,setting,value
"O=C(NCC(c1scnc1C(F)F)N1CCC(Oc2nc(-c3ccccc3)no2)CC1)c1c(F)cccc1Cl (stereo not shown) [Example 24, 2-Chloro-N-{2-[4-(difluoromethyl)-1,3-thiazol-5-yl]-2-{4-[(3-phenyl-1,2,4-oxadiazol-5-yl)oxy]piperidin-1-yl}ethyl}-6-fluorobenzamide]",IC50,mP2X7,32.4 nM
same,IC50,P2X7 receptor,98.1 nM
"N#Cc1cccc(OCC2CCN(C(CNC(=O)c3c(F)cccc3Cl)c3scnc3C(F)F)CC2)n1 (stereo not shown) [Example 109, 2-Chloro-N-[2-(4-{[(6-cyanopyridin-2-yl)oxy]methyl}piperidin-1-yl)-2-[4-(difluoromethyl)-1,3-thiazol-5-yl]ethyl]-6-fluorobenzamide]",IC50,mP2X7,19.2 nM
same,IC50,P2X7 receptor,24.9 nM
"Cc1cnc(OCC2CCN(C(CNC(=O)c3c(F)cccc3Cl)c3scnc3C(F)F)CC2)nc1 (stereo not shown) [Example 100, 2-Chloro-N-{2-[4-(difluoromethyl)-1,3-thiazol-5-yl]-2-(4-{[(5-methylpyrimidin-2-yl)oxy]methyl}piperidin-1-yl)ethyl}-6-fluorobenzamide]",IC50,mP2X7,66.7 nM
same,IC50,P2X7 receptor,37.8 nM
"N#Cc1ccncc1OCC1CCN(C(CNC(=O)c2c(F)cccc2Cl)c2scnc2C(F)F)CC1 (stereo not shown) [Example 111, 2-Chloro-N-[2-(4-{[(4-cyanopyridin-3-yl)oxy]methyl}piperidin-1-yl)-2-[4-(difluoromethyl)-1,3-thiazol-5-yl]ethyl]-6-fluorobenzamide]",IC50,mP2X7,16.1 nM
same,IC50,P2X7 receptor,22.5 nM
"N#Cc1cncc(OC2CCN(C(CNC(=O)c3c(F)cccc3Cl)c3scnc3C(F)F)CC2)c1 (stereo not shown) [Example 16, 2-Chloro-N-(2-{4-[(5-cyanopyridin-3-yl)oxy]piperidin-1-yl}-2-[4-(difluoromethyl)-1,3-thiazol-5-yl]ethyl)-6-fluorobenzamide]",IC50,mP2X7,68.3 nM
same,IC50,P2X7 receptor,56.9 nM
"O=C(NCC(c1scnc1C(F)F)N1CCC(Oc2nc3ccccc3s2)CC1)c1c(F)cccc1Cl (stereo not shown) [Example 20, N-{2-[4-(1,3-Benzothiazol-2-yloxy)piperidin-1-yl]-2-[4-(difluoromethyl)-1,3-thiazol-5-yl]ethyl}-2-chloro-6-fluorobenzamide]",IC50,mP2X7,14 nM
same,IC50,P2X7 receptor,17.5 nM
"O=C(NCC(c1scnc1C(F)F)N1CCC(Oc2nnnn2-c2ccccc2)CC1)c1c(F)cccc1Cl (stereo not shown) [Example 25, 2-Chloro-N-{2-[4-(difluoromethyl)-1,3-thiazol-5-yl]-2-{4-[(1-phenyl-1H-1,2,3,4-tetrazol-5-yl)oxy]piperidin-1-yl}ethyl}-6-fluorobenzamide]",IC50,mP2X7,45.8 nM
same,IC50,P2X7 receptor,57.7 nM
"O=C(NCC(c1scnc1C(F)F)N1CCC(Oc2nccc3ncccc23)CC1)c1c(F)cccc1Cl (stereo not shown) [Example 49, 2-Chloro-N-{2-[4-(difluoromethyl)-1,3-thiazol-5-yl]-2-[4-(1,6-naphthyridin-5-yloxy)piperidin-1-yl]ethyl}-6-fluorobenzamide]",IC50,mP2X7,19.5 nM
same,IC50,P2X7 receptor,19.4 nM
"Cc1cc(OC2CCN(C(CNC(=O)c3c(F)cccc3Cl)c3scnc3C(F)F)CC2)nc(F)n1 (stereo not shown) [Example 54, 2-Chloro-N-{2-[4-(difluoromethyl)-1,3-thiazol-5-yl]-2-{4-[(2-fluoro-6-methylpyrimidin-4-yl)oxy]piperidin-1-yl}ethyl}-6-fluorobenzamide]",IC50,mP2X7,52.9 nM
same,IC50,P2X7 receptor,22.8 nM
"O=C(NCC(c1scnc1C(F)F)N1CCC(COc2ccnc(F)n2)CC1)c1c(F)cccc1Cl (stereo not shown) [Example 107, 2-Chloro-N-{2-[4-(difluoromethyl)-1,3-thiazol-5-yl]-2-(4-{[(2-fluoropyrimidin-4-yl)oxy]methyl}piperidin-1-yl)ethyl}-6-fluorobenzamide]",IC50,mP2X7,24.2 nM
same,IC50,P2X7 receptor,55.2 nM
"Cc1ccc(OC2CCN(C(CNC(=O)c3c(F)cccc3Cl)c3scnc3C(F)F)CC2)nn1 (stereo not shown) [Example 29, 2-Chloro-N-{2-[4-(difluoromethyl)-1,3-thiazol-5-yl]-2-{4-[(6-methylpyridazin-3-yl)oxy]piperidin-1-yl}ethyl}-6-fluorobenzamide]",IC50,mP2X7,87.6 nM
same,IC50,P2X7 receptor,31.7 nM
"N#Cc1cnccc1OC1CCN(C(CNC(=O)c2c(F)cccc2Cl)c2scnc2C(F)F)CC1 (stereo not shown) [Example 50, 2-Chloro-N-(2-{4-[(3-cyanopyridin-4-yl)oxy]piperidin-1-yl}-2-[4-(difluoromethyl)-1,3-thiazol-5-yl]ethyl)-6-fluorobenzamide]",IC50,mP2X7,224 nM
same,IC50,P2X7 receptor,89 nM
"O=C(NCC(c1scnc1C(F)F)N1CCC(Oc2cnccn2)CC1)c1c(F)cccc1Cl (stereo not shown) [Example 70, 2-Chloro-N-{2-[4-(difluoromethyl)-1,3-thiazol-5-yl]-2-[4-(pyrazin-2-yloxy)piperidin-1-yl]ethyl}-6-fluorobenzamidev]",IC50,mP2X7,101 nM
same,IC50,P2X7 receptor,50 nM
"O=C(NCC(c1scnc1C(F)F)N1CCC(Oc2ncccc2Cl)CC1)c1c(F)cccc1Cl (stereo not shown) [Example 47, 2-Chloro-N-(2-{4-[(3-chloropyridin-2-yl)oxy]piperidin-1-yl}-2-[4-(difluoromethyl)-1,3-thiazol-5-yl]ethyl)-6-fluorobenzamide]",IC50,mP2X7,43.9 nM
same,IC50,P2X7 receptor,31 nM
"O=C(NCC(c1scnc1C(F)F)N1CCC(COc2nccs2)CC1)c1c(F)cccc1Cl (stereo not shown) [Example 82, 2-chloro-N-{2-[4-(difluoromethyl)-1,3-thiazol-5-yl]-2-{4-[(1,3-thiazol-2-yloxy)methyl]piperidin-1-yl}ethyl}-6-fluorobenzamide]",IC50,mP2X7,41.9 nM
same,IC50,P2X7 receptor,15.2 nM
"N#Cc1cccc(OC2CCN(C(CNC(=O)c3c(F)cccc3Cl)c3scnc3C(F)F)CC2)n1 (stereo not shown) [Example 37, 2-Chloro-N-(2-{4-[(6-cyanopyridin-2-yl)oxy]piperidin-1-yl}-2-[4-(difluoromethyl)-1,3-thiazol-5-yl]ethyl)-6-fluorobenzamide]",IC50,mP2X7,28.5 nM
same,IC50,P2X7 receptor,28 nM
"O=C(NCC(c1scnc1C(F)F)N1CCC(Oc2nccs2)CC1)c1c(F)cccc1Cl (stereo not shown) [Example 10, 2-chloro-N-{2-[4-(difluoromethyl)-1,3-thiazol-5-yl]-2-[4-(1,3-thiazol-2-yloxy)piperidin-1-yl]ethyl}-6-fluorobenzamide]",IC50,mP2X7,191 nM
same,IC50,P2X7 receptor,23.5 nM
"N#Cc1cccnc1OC1CCN(C(CNC(=O)c2c(F)cccc2Cl)c2scnc2C(F)F)CC1 (stereo not shown) [Example 36, 2-Chloro-N-(2-{4-[(3-cyanopyridin-2-yl)oxy]piperidin-1-yl}-2-[4-(difluoromethyl)-1,3-thiazol-5-yl]ethyl)-6-fluorobenzamide]",IC50,mP2X7,126 nM
same,IC50,P2X7 receptor,53.8 nM
"Cc1ncnc(OC2CCN(C(CNC(=O)c3c(F)cccc3Cl)c3scnc3C(F)F)CC2)c1F (stereo not shown) [Example 56, 2-Chloro-N-{2-[4-(difluoromethyl)-1,3-thiazol-5-yl]-2-{4-[(5-fluoro-6-methylpyrimidin-4-yl)oxy]piperidin-1-yl}ethyl}-6-fluorobenzamide]",IC50,mP2X7,82 nM
same,IC50,P2X7 receptor,53.8 nM
"N#Cc1ccnc(OC2CCN(C(CNC(=O)c3c(F)cccc3Cl)c3scnc3C(F)F)CC2)c1 (stereo not shown) [Example 79, 2-Chloro-N-(2-{4-[(4-cyanopyridin-2-yl)oxy]piperidin-1-yl}-2-[4-(difluoromethyl)-1,3-thiazol-5-yl]ethyl)-6-fluorobenzamide]",IC50,mP2X7,41.4 nM
same,IC50,P2X7 receptor,30.1 nM
"O=C(NCC(c1scnc1C(F)F)N1CCC(Oc2cncc(F)n2)CC1)c1c(F)cccc1Cl (stereo not shown) [Example 33, 2-Chloro-N-{2-[4-(difluoromethyl)-1,3-thiazol-5-yl]-2-{4-[(6-fluoropyrazin-2-yl)oxy]piperidin-1-yl}ethyl}-6-fluorobenzamide]",IC50,mP2X7,52.5 nM
same,IC50,P2X7 receptor,39.9 nM
"O=C(NCC(c1scnc1C(F)F)N1CCC(Oc2cc(F)ncn2)CC1)c1c(F)cccc1Cl (stereo not shown) [Example 31, 2-Chloro-N-{2-[4-(difluoromethyl)-1,3-thiazol-5-yl]-2-{4-[(6-fluoropyrimidin-4-yl)oxy]piperidin-1-yl}ethyl}-6-fluorobenzamide]",IC50,mP2X7,136 nM
same,IC50,P2X7 receptor,61.2 nM
"O=C(NCC(c1scnc1C(F)F)N1CCC(COc2nc(Cl)cs2)CC1)c1c(F)cccc1Cl (stereo not shown) [Example 83, 2-Chloro-N-[2-(4-{[(4-chloro-1,3-thiazol-2-yl)oxy]methyl}piperidin-1-yl)-2-[4-(difluoromethyl)-1,3-thiazol-5-yl]ethyl]-6-fluorobenzamide]",IC50,mP2X7,32.7 nM
same,IC50,P2X7 receptor,13 nM
"COCCc1nsc(OC2CCN(C(CNC(=O)c3c(F)cccc3Cl)c3scnc3C(F)F)CC2)n1 (stereo not shown) [Example 23, 2-Chloro-N-{2-[4-(difluoromethyl)-1,3-thiazol-5-yl]-2-(4-{[3-(2-methoxyethyl)-1,2,4-thiadiazol-5-yl]oxy}piperidin-1-yl)ethyl}-6-fluorobenzamide]",IC50,mP2X7,183 nM
same,IC50,P2X7 receptor,73.6 nM
"N#Cc1cccnc1OCC1CCN(C(CNC(=O)c2c(F)cccc2Cl)c2scnc2C(F)F)CC1 (stereo not shown) [Example 108, 2-Chloro-N-[2-(4-{[(3-cyanopyridin-2-yl)oxy]methyl}piperidin-1-yl)-2-[4-(difluoromethyl)-1,3-thiazol-5-yl]ethyl]-6-fluorobenzamide]",IC50,mP2X7,13.2 nM
same,IC50,P2X7 receptor,25.6 nM
"O=C(NCC(c1scnc1C(F)F)N1CCC(COc2ncccc2Cl)CC1)c1c(F)cccc1Cl (stereo not shown) [Example 120, 2-Chloro-N-[2-(4-{[(3-chloropyridin-2-yl)oxy]methyl}piperidin-1-yl)-2-[4-(difluoromethyl)-1,3-thiazol-5-yl]ethyl]-6-fluorobenzamide]",IC50,mP2X7,16.4 nM
same,IC50,P2X7 receptor,32.5 nM
